Assay results: PMC6054532, “Dynamics of human protein kinase Aurora A linked to drug selectivity” (eLife, 2018)
Positions count from the first letter of the chain named.

Tests used:
Aurora A [1] = molecular target: T1, Aurora A (Homo sapiens, UniProt O14965); test: Global fit of binding and dissociation kinetics (KinTek Explorer) and constants calculated from microscopic rate constants; settings: for weakening of overall affinity by the DFG-in and -out equilibrium: DFG-out binders
T1 construct: made in house; host or cells: E. coli BL21(DE3)
T1 sequence (O14965 122-403): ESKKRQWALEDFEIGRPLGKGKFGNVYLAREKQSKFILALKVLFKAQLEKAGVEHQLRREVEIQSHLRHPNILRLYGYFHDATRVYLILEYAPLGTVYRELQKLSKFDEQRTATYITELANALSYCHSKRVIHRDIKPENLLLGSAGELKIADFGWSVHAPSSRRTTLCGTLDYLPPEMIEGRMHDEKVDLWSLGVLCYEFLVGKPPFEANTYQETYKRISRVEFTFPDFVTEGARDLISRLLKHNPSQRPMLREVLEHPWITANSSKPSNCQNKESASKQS
Method: (§1) The rapid kinetics were studied using a stopped-flow spectrophotometer (SX20 series from Applied Photophysics Ltd). The flow system was made anaerobic by rinsing with degassed buffer comprised of 50 mM HEPES, 50 mM NaCl, 20 mM MgCl2, 5 mM TCEP, 5% DMSO, pH 7.30 to minimize photobleaching. The stock solutions of Aurora A and all drugs were made anaerobic by degassing with ThermoVac (MicroCal) at the desired temperature. In general, a solution of 5 μM Aurora A was loaded in one syringe and quickly mixed with drug, prepared in the same buffer, in the other syringe (mixing ratio 1:10). […] For each drug concentration, at least five replicate measurements were made and these transients were averaged. Analysis was performed by fitting the individual trace to exponential equations using Pro-Data Viewer (Applied Photophysics Ltd) or with Kinesyst 3 software (TgK Scientific) and error bars denote the standard errors as obtained from the fit. KaleidaGraph version 4.5.3 (Synergy) was used for data analysis and plotting.

[2] = molecular target: T2, dephosphorylated Aurora A (Homo sapiens, UniProt O14965); test: Stopped-flow intrinsic tryptophan fluorescence drug binding kinetics
T2 construct: made in house; host or cells: E. coli BL21(DE3)
T2 sequence (O14965 122-403): T1 sequence (O14965 122-403)
Method: as §1
The approximate values of k1 and k−1 obtained from fitting to this equation are used as starting values for the global fit.

[3] = molecular target: T3, Biotinylated T288V Aurora A (Homo sapiens, UniProt O14965, T288V); test: Creoptix WAVE waveguide interferometry (double jump, slow-off, macroscopic KD); type: binding; settings: 25°C; complex formed after 1 hour of incubation
T3 construct: made in house
T3 sequence (O14965 122-403 T288V): T1 sequence (O14965 122-403) with T167V
Method: All chemicals were purchased from GE Healthcare, unless otherwise stated. The protocols in the WAVE control software for conditioning of the chip, immobilization of proteins and performing kinetics experiments were followed. In short, the polycarboxylate chip (PCH) was activated by injection of a 1:1 mixture with final concentrations of 200 mM N-ethyl-N’-(3-dimethylaminopropyl)carbodiimide (EDC) and 50 mM N-hydroxysuccinimide (NHS), followed by streptavidin immobilization (50 μg/mL in 10 mM sodium acetate pH 5.0). Unreacted sites on the chip were blocked with 1 M ethanolamine pH 8.0. For all activation, immobilization and passivation steps 0.2x HBS-EP was used as running buffer with a flowrate of 10 μL/min and an injection duration of 420 s on both channels 1 and 2.
All experiments were run in 50 mM HEPES, 50 mM NaCl, 20 mM MgCl2, 5 mM TCEP, 0.03 mg/mL BSA, 0.005% Tween-20, pH 7.30 as running buffer.

Aurora B = settings: ref Howard et al., 2009; cited from earlier work
Aurora A [4] = molecular target: T1, Aurora A; test: mant-ATP binding kinetics by stopped-flow FRET from Trp, with global fit; settings: 10°C
Method: Inhibitor binding followed by an induced-fit step:(3) Eout+ I⇌koffkonEout⋅I⇌k−3k3Eout∗⋅I K2K3KD=K2∗K3/(K3+1)
FRET using intrinsic tryptophan fluorescence is used to monitor mant-ATP (obtained from Jena Bioscience) binding kinetics to Aurora A at 10°C. In the binding experiment or kon , increasing concentration of mant-ATP were quickly mixed to 0.5 µM Aurora A (ratio 1:10, excitation at 295 nm, emission cut-off at 395 nm). In the experiment to measure the release of mant-ATP or koff , 10 µM/10 µM Aurora A/mant-ATP complex was diluted with buffer (ratio 1:10). A significant decrease in the fluorescence intensity of Aurora A (excitation at 295 nm, emission cut-off at 395 nm) can be seen due to the mant-ATP release.

Aurora C = system: Aurora C; design: method as in Carpinelli et al., 2007; Fraedrich et al., 2012; settings: ref Carpinelli et al., 2007; Fraedrich et al., 2012; cited from earlier work
[5] = molecular target: the molecule itself; test: crystal structure; co-crystallised: 240 μM deP Aurora A 122-403 + 1.0 mM AT9283 + 250 μM Mb; sitting drop, 18°C, 0.1 M Bis-Tris pH 5.5, 0.2 M magnesium chloride, 19% (w/v) PEG-3350

For Cc1ccc(NC(=O)c2ccc(CN3CCN(C)CC3)cc2)cc1Nc1nccc(-c2cccnc2)n1 [Gleevec], which “weakening of overall affinity by the DFG-in and -out equilibrium” value (Aurora A [1]) is on record?
Its value is 1.6 fold.

And the “k2, bimolecular rate constant (slope of kobs,Binding vs concentration, fast phase)” value ([2]; 10°C)?
Its value is 1.1e+06 ± 300000 M⁻¹ s⁻¹.

What about the “k-2, dissociation from intercept of binding plot (kdiss)” value ([2]; 10°C) of the same molecule?
Its value is 31 ± 2 s⁻¹.

What does the source list for O=C(Nc1c[nH]nc1-c1nc2ccc(CN3CCOCC3)cc2[nH]1)NC1CC1 [AT9283]?
slow dissociation, double exponential, fast phase (kobs1 slow-off) [3]: (1.1 ± 0.02) × 10^−2 s^−1; slow dissociation, double exponential, slow phase (kobs2 slow-off) [3]: (0.1 ± 0.01) × 10^−2 s^−1; IC50 (Aurora B): 3 nM

Which results are given for mant-ATP?
k2 (plot of kobs vs concentration, fast phase) (Aurora A [4]): 800000 ± 200000 M⁻¹ s⁻¹; k-2 (plot of kobs vs concentration, fast phase) (Aurora A [4]): 50 ± 8 s⁻¹; kobs of slow phase, plateau (k3+k-3) (Aurora A [4]): around 21 ± 1 s^−1

For CO[C@@H](C(=O)N1Cc2n[nH]c(NC(=O)c3ccc(N4CCN(C)CC4)cc3)c2C1)c1ccccc1 [Danusertib], which IC50 (Aurora C) is on record?
Its IC50 is 61 nM.

And the “weakening of overall affinity by the DFG-in and -out equilibrium” value (Aurora A [1])?
The value was 1.6 fold.

And the “tighter binding resulting from the conformational change after drug binding” value (Aurora A [1]; induced-fit step)?
Its value is “four orders of magnitude”.

What about the “k-2 (intercept of kobs,Binding plot)” value ([2]; 25°C) of the same molecule?
Its value is 4.6 ± 3 s⁻¹.

And the “kobs of slow phase, plateau (induced-fit step, k3+k-3)” value ([2]; 25°C)?
The value was “approximately 16 ± 2 s^−1”.

B1: dephosphorylated Aurora A (122-403) (domain or fragment, human, UniProt O14965 122-403, looked up)
chain: T1 sequence (O14965 122-403)
notes: human Ser/Thr kinase Aurora A, residues 122-403, dephosphorylated (confirmed by mass spectrometry); E. coli BL21(DE3) is named only for the isotope-labelled samples; also called deP Aurora A^122-403; AurA; source: expressed and purified as described before (Zorba et al., 2014)
Does B1 bind [5]?
Result: binds
